Where “and” joins values, the source holds several entries; their conditions need not be identical. Equal values may be shown once.
How the values were obtained:
gastric H,K-ATPase = target: T1, gastric H,K-ATPase (Sus scrofa, UniProt P19156); assay: Inhibition of ATPase activity using isolated hog gastric vesicles; assay type: biochemical; conditions: for inhibition of enzyme activity after 80 minutes: after 80 minutes at pH 7.4, 37° C.; for inhibition of gastric H,K-ATPase activity initially (before hydrolysis): 10, 20, 50, and 100 μM, pH 7.4, 37° C.
T1 construct: from tissue; host or cells: hog gastric vesicles (stomach mucosa)
T1 sequence (P19156 2-1034 limits assumed): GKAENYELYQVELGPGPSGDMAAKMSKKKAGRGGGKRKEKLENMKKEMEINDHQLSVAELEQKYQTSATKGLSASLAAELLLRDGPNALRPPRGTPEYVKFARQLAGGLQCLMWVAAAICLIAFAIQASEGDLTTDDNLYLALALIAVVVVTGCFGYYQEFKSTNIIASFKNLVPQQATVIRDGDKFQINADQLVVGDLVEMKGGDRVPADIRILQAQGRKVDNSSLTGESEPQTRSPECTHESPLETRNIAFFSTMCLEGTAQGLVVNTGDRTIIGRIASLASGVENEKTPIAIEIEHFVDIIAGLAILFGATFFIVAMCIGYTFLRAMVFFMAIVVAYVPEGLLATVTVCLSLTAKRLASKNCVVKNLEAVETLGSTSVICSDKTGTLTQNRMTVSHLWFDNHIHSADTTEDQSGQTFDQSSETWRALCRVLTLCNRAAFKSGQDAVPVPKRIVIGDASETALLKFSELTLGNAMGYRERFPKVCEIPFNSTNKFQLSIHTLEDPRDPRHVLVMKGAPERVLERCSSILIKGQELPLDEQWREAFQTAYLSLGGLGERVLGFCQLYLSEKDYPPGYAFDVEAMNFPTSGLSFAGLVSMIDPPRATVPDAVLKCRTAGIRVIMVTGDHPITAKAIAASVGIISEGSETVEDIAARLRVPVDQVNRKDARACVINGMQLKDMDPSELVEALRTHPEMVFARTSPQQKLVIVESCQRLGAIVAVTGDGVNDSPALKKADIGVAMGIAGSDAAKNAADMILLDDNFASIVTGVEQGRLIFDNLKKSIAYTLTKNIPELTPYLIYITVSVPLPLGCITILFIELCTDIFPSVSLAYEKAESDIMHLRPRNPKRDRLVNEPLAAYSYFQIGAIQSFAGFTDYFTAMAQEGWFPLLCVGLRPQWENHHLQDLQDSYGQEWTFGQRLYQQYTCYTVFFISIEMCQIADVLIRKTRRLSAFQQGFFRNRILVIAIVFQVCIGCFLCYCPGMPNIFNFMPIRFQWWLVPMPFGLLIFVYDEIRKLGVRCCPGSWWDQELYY
T1 sequence (P18434 whole entry partner): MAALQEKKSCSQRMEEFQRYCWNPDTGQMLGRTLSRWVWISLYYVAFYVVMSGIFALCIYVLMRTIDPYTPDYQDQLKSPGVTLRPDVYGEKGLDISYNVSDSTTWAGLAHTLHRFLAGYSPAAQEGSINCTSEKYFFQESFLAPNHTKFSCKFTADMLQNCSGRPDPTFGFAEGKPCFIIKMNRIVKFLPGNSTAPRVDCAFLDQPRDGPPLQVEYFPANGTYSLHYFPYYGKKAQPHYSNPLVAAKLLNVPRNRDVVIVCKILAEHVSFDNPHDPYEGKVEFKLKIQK
Text: By way of concrete examples, the following tests and results are described. […] This is consistent with the knowledge that the compounds obtained by hydrolysis e. g. LANSOPRAZOLE, OMEPRAZOLE, PANTOPRAZOLE and RABEPRAZOLE are well known H,K-ATPase inhibitors. […] Another good example is 2-(2-carbamoylmethoxy-4-{2-[4-(3-methoxypropoxy)-3-methyl pyridin-2-yl methylsulfinyl]benzimidazole-1-sulfonyl}phenoxy)acetamide. The half life of this compound dependes on pH. […] Based on these measured characteristics the compound 2-(2-carbamoylmethoxy-4-{2-[4-(3-methoxypropoxy)-3-methyl pyridin-2-yl methylsulfinyl]benzimidazole-1-sulfonyl}phenoxy)acetamide is expected to be well absorbed, and slowly release the parent RABEPRAZOLE in the blood, resulting in long-lasting in vivo activity. This compound can also be administered intravenously in an aqueous solution at pH 7.4 which solution may include 2-hydroxypropyl-β-cyclodextrin.
Inhibition of ATPase activity was measured using isolated hog gastric vesicles. The gastric H,K-ATPase (10 μg) was incubated at 37° C. in a solution (1 ml) composed of 0.25M sucrose, 20 mM Pipes/Tris, pH 7.4, 0.15M KCl, 2 mM MgCl2, valinomycin 2 μg/ml, and various concentration of compounds of the invention. At timed intervals, ATP was added (up to 2 mM) and incubated for 15 minutes and amount of released phosphate ion was measured. As a control experiment the prior art drug without a labile group on the benzimidazole nitrogen (e. g. OMEPRAZOLE or LANSOPRAZOLE) was used for measuring inhibition of enzyme activity.

[1] = Solubility in aqueous buffer; assay type: physicochemical
[2] = Acid stability in 95% methanol containing 0.1N HCl; assay type: physicochemical; conditions: after 2.25 hour in 95% methanol containing 0.1N HCl
Method: Acid stability of the compounds was assayed in 95% methanol containing 0.1N HCl. Approximately 90% of the compound of Example 1 was still present intact (without decomposition) after 2.25 hour in this solution.

[3] = test system: gastric acid secretion (histamine-stimulated acid output), pylorus-ligated male rats; assay: Initial inhibition of gastric acid secretion after intraduodenal administration to pylorus-ligated rats; assay type: in vivo; conditions: 10 μmole/kg, after pylorus ligation, histamine 30 mg/kg s.c., acid output over four hours, rat
Method: Histamine (30 mg/kg) was subcutaneously injected to stimulate acid production. The abdomen was surgically closed immediately. Four hours later the esophagus was ligated and the stomach was removed. Acid output was measured as described above.

[4] = test system: gastric acid secretion of the conscious male rat; assay: Inhibitory effect on gastric acid secretion of the conscious male rat at timed intervals after oral administration; assay type: in vivo; conditions: between 5.5-8.5 hours after oral administration; 10 μmole/kg; histamine and carbachol stimulated; male rat
[5] = Relative plasma concentration of OMEPRAZOLE in male rat after oral administration; conditions: for Relative concentration of OMEPRAZOLE released in the plasma: male rat, examples 2 mg/kg, OMEPRAZOLE 4 mg/kg;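 for all read-outs here: Sprague-Dawley rats fasted one day with water available, dosed orally with prodrug compounds, OMEPRAZOLE quantified by HPLC in plasma from serial blood draws, control given OMEPRAZOLE itself orally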
Method: Male adult rats of the Sprague-Dawley strain were used for determining the concentration of OMEPRAZOLE in the plasma. All rats were derived of food but not of water for one day. Examples of compounds of the invention (2 mg/kg of rat weight) were orally administrated to male rats (weighing 250 g to 270 g) and blood samples (0.3 ml) were taken at timed intervals. Blood samples were centrifuged and plasma was taken out. Plasma was extracted with 0.5 ml of dichloromethane. Dichloromethane layer was evaporated by nitrogen/air blowing. The residual materials were dissolved in 0.5 ml of 40% acetonitrile in 10 mM phosphate buffer (pH 7.4). Amounts of OMEPRAZOLE were determined by HPLC analysis. As a control, OMEPRAZOLE (4 mg/kg of rat weight) was orally administrated.

[6] = after 5.75 hr hydrolysis at pH 7.4, 10 μM

| Molecule | inhibition of enzyme activity after 80 minutes (gastric H,K-ATPase; 10 μM) [%] | inhibition of enzyme activity after 80 minutes (gastric H,K-ATPase; 50 μM) [%] | inhibition of gastric H,K-ATPase activity after 5.75 hr hydrolysis (gastric H,K-ATPase; [6]) | inhibition of gastric H,K-ATPase activity after 5.75 hr hydrolysis (gastric H,K-ATPase; after 5.75 hr hydrolysis at pH 7.4, 10 μM, listed as 1-benzenesulfonyl-5-methoxy-2-[(3,5-dimethyl-4-methoxy-2-pyridyl)methylsulfinyl], 10 µM) [%] | inhibition of gastric H,K-ATPase activity initially (before hydrolysis) (gastric H,K-ATPase) | inhibition of gastric H,K-ATPase activity initially (before hydrolysis) (gastric H,K-ATPase; listed as 1-benzenesulfonyl-5-methoxy-2-[(3,5-dimethyl-4-methoxy-2-pyridyl)methylsulfinyl]) | solubility in aqueous buffer (comparison) [1] | compound still present intact (without decomposition) [2] | inhibition at 10 µM (gastric H,K-ATPase; [6]) [%] | inhibition of histamine-stimulated acid output [3] [%] | % inhibition of gastric acid secretion [4] | Relative concentration of OMEPRAZOLE released in the plasma ([5]; 20 min after oral administration) [arbitrary unit] | Relative concentration of OMEPRAZOLE released in the plasma ([5]; 40 min after oral administration) [arbitrary unit] | Relative concentration of OMEPRAZOLE released in the plasma ([5]; 60 min after oral administration) [arbitrary unit] | Relative concentration of OMEPRAZOLE released in the plasma ([5]; 80 min after oral administration) [arbitrary unit] | time until OMEPRAZOLE has completely disappeared from the plasma ([5]; administrated to male rat (control)) [h] |
| --- | --- | --- | --- | --- | --- | --- | --- | --- | --- | --- | --- | --- | --- | --- | --- | --- |
| 1-Benzenesulfonyl-5-methoxy-2-[(3,5-dimethyl-4-methoxy-2-pyridyl)methylsulfinyl]-1H-benzimidazole and 1-Benzensulfonyl-6-methoxy-2-[(3,5-dimethyl-4-methoxy-2-pyridyl)methylsulfinyl]-1H-benzimidazole [Example 1] | 10 | 50 | the same level of inhibition | 91 | failed to inhibit enzyme activity | did not inhibit | slightly higher solubility in aqueous buffer than the compound of Example 19 | Approximately 90% |  |  |  |  |  |  |  |  |
| COc1ccc2[nH]c([S+]([O-])Cc3ncc(C)c(OC)c3C)nc2c1 (centres unmarked) [OMEPRAZOLE, 5-methoxy-2-[(3,5-dimethyl-4-methoxy-2-pyridyl)methylsulfinyl]-1H-benzimidazole, reference compound] |  |  | the same level of inhibition |  |  |  |  |  | 91 | 54.6 | 19.6% and 19.6 ± 3.9% | 28 | 4 | 2 | 1 | ≤ 1.5 |
